Test results taken from PubChem BioAssay AID2060898 (Molecular Pharmacology Branch, DTP, NCI, 2025).

System: 616215-338-R-J1-PDC complex spheroid viability
Experiment: Anticancer human tumor 616215-338-R-J1-PDC patient-derived colon adenocarcinoma cell line growth inhibition [RAS]
Settings: for IC50: curve of first compound; for viability, T/C: stronger effect = lower value
Procedure, shortened: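 Multi-cell-type spheroids: tumor cells plus HUVEC endothelial cells and mesenchymal stem cells. RAS-pathway inhibitors were combined with targeted agents, each dosed in half-log steps down from clinical Cmax, or from 10 microM when Cmax was unknown.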

[1] = second compound 0.000949 µM, first compound 0.0316 µM
[2] = second compound 0.000949 µM, first compound 0.1 µM
[3] = second compound 0.000949 µM, first compound 0.316 µM
[4] = second compound 0.000949 µM, first compound 1 µM
[5] = second compound 0.000949 µM, first compound 3.16 µM
[6] = second compound 0.000949 µM, first compound 10 µM
[7] = second compound 0.003 µM, first compound 0.0316 µM
[8] = second compound 0.003 µM, first compound 0.1 µM
[9] = second compound 0.003 µM, first compound 0.316 µM
[10] = second compound 0.003 µM, first compound 1 µM
[11] = second compound 0.003 µM, first compound 3.16 µM
[12] = second compound 0.003 µM, first compound 10 µM
[13] = second compound 0.00949 µM, first compound 0.0316 µM
[14] = second compound 0.00949 µM, first compound 0.1 µM
[15] = second compound 0.00949 µM, first compound 0.316 µM
[16] = second compound 0.00949 µM, first compound 1 µM
[17] = second compound 0.00949 µM, first compound 3.16 µM
[18] = second compound 0.00949 µM, first compound 10 µM
[19] = second compound 0.03 µM, first compound 0.0316 µM
[20] = second compound 0.03 µM, first compound 0.1 µM
[21] = second compound 0.03 µM, first compound 0.316 µM
[22] = second compound 0.03 µM, first compound 1 µM
[23] = second compound 0.03 µM, first compound 3.16 µM
[24] = second compound 0.03 µM, first compound 10 µM
[25] = second compound 0.0949 µM, first compound 0.0316 µM
[26] = second compound 0.0949 µM, first compound 0.1 µM
[27] = second compound 0.0949 µM, first compound 0.316 µM
[28] = second compound 0.0949 µM, first compound 1 µM
[29] = second compound 0.0949 µM, first compound 3.16 µM
[30] = second compound 0.0949 µM, first compound 10 µM
[31] = second compound 0.3 µM, first compound 0.0316 µM
[32] = second compound 0.3 µM, first compound 0.1 µM
[33] = second compound 0.3 µM, first compound 0.316 µM
[34] = second compound 0.3 µM, first compound 1 µM
[35] = second compound 0.3 µM, first compound 3.16 µM
[36] = second compound 0.3 µM, first compound 10 µM
[37] = second compound 0.000949 µM, first compound 0.00316 µM
[38] = second compound 0.000949 µM, first compound 0.01 µM
[39] = second compound 0.003 µM, first compound 0.00316 µM
[40] = second compound 0.003 µM, first compound 0.01 µM
[41] = second compound 0.00949 µM, first compound 0.00316 µM
[42] = second compound 0.00949 µM, first compound 0.01 µM
[43] = second compound 0.03 µM, first compound 0.00316 µM
[44] = second compound 0.03 µM, first compound 0.01 µM
[45] = second compound 0.0949 µM, first compound 0.00316 µM
[46] = second compound 0.0949 µM, first compound 0.01 µM
[47] = second compound 0.3 µM, first compound 0.00316 µM
[48] = second compound 0.3 µM, first compound 0.01 µM
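Note: spheroids exposed to agents for seven days before viability readout.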
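Throughout, for viability, T/C: 100% = DMSO vehicle control viability.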

CC(C)NCC(C(=O)N1CCN(c2ncnc3c2C(C)CC3O)CC1)c1ccc(Cl)cc1 (stereo not drawn) + CCn1c(-c2cccnc2C(C)OC)c2c3cc(ccc31)N1CCOC(CC(NC(=O)C(C(C)C)N(C)C(=O)C3(F)CCN(C(=O)C#CC(C)(C)N(C)C)CC3)C(=O)N3CCCC(N3)C(=O)OCC(C)(C)C2)C1
IC50 (second compound 0.000949 µM): 8750 nM | IC50 (second compound 0.003 µM): > 10000 nM | IC50 (second compound 0.00949 µM): > 10000 nM | IC50 (second compound 0.03 µM): 8380 nM | IC50 (second compound 0.0949 µM): 6150 nM | IC50 (second compound 0.3 µM): 3000 nM | viability, T/C [1]: 106% | viability, T/C [2]: 106% | viability, T/C [3]: 102% | viability, T/C [4]: 113% | viability, T/C [5]: 90.7% | viability, T/C [6]: 44.7% | viability, T/C [7]: 98.1% | viability, T/C [8]: 95.9% | viability, T/C [9]: 94% | viability, T/C [10]: 98.4% | viability, T/C [11]: 97.4% | viability, T/C [12]: 50.9% | viability, T/C [13]: 112% | viability, T/C [14]: 101% | viability, T/C [15]: 93.5% | viability, T/C [16]: 98.5% | viability, T/C [17]: 85.5% | viability, T/C [18]: 51.1% | viability, T/C [19]: 99.7% | viability, T/C [20]: 98.8% | viability, T/C [21]: 105% | viability, T/C [22]: 111% | viability, T/C [23]: 96.2% | viability, T/C [24]: 41.4% | viability, T/C [25]: 118% | viability, T/C [26]: 108% | viability, T/C [27]: 111% | viability, T/C [28]: 97.2% | viability, T/C [29]: 73.9% | viability, T/C [30]: 32.4% | viability, T/C [31]: 116% | viability, T/C [32]: 116% | viability, T/C [33]: 108% | viability, T/C [34]: 85.6% | viability, T/C [35]: 48.1% | viability, T/C [36]: 28.6%

CC(C)n1nc(-c2ccc3oc(N)nc3c2)c2c(N)ncnc21 + CCn1c(-c2cccnc2C(C)OC)c2c3cc(ccc31)N1CCOC(CC(NC(=O)C(C(C)C)N(C)C(=O)C3(F)CCN(C(=O)C#CC(C)(C)N(C)C)CC3)C(=O)N3CCCC(N3)C(=O)OCC(C)(C)C2)C1
IC50 (second compound 0.000949 µM): > 100 nM | IC50 (second compound 0.003 µM): > 100 nM | IC50 (second compound 0.00949 µM): > 100 nM | IC50 (second compound 0.03 µM): > 100 nM | IC50 (second compound 0.0949 µM): > 100 nM | IC50 (second compound 0.3 µM): 66.2 nM | viability, T/C (second compound 0.000949 µM, first compound 0.000316 µM): 95.6% | viability, T/C (second compound 0.000949 µM, first compound 0.001 µM): 97.1% | viability, T/C [37]: 108% | viability, T/C [38]: 96.9% | viability, T/C [1]: 112% | viability, T/C [2]: 72.2% | viability, T/C (second compound 0.003 µM, first compound 0.000316 µM): 102% | viability, T/C (second compound 0.003 µM, first compound 0.001 µM): 98.9% | viability, T/C [39]: 97.8% | viability, T/C [40]: 105% | viability, T/C [7]: 116% | viability, T/C [8]: 74.1% | viability, T/C (second compound 0.00949 µM, first compound 0.000316 µM): 100% | viability, T/C (second compound 0.00949 µM, first compound 0.001 µM): 90.7% | viability, T/C [41]: 101% | viability, T/C [42]: 111% | viability, T/C [13]: 111% | viability, T/C [14]: 66.6% | viability, T/C (second compound 0.03 µM, first compound 0.000316 µM): 95.5% | viability, T/C (second compound 0.03 µM, first compound 0.001 µM): 96.1% | viability, T/C [43]: 115% | viability, T/C [44]: 106% | viability, T/C [19]: 102% | viability, T/C [20]: 64.1% | viability, T/C (second compound 0.0949 µM, first compound 0.000316 µM): 109% | viability, T/C (second compound 0.0949 µM, first compound 0.001 µM): 109% | viability, T/C [45]: 113% | viability, T/C [46]: 110% | viability, T/C [25]: 108% | viability, T/C [26]: 55.8% | viability, T/C (second compound 0.3 µM, first compound 0.000316 µM): 106% | viability, T/C (second compound 0.3 µM, first compound 0.001 µM): 106% | viability, T/C [47]: 103% | viability, T/C [48]: 82.1% | viability, T/C [31]: 71.8% | viability, T/C [32]: 38.9%

CC(Nc1ccc2c(c1)OCCn1cc(N3C(=O)OCC3C(F)F)nc1-2)C(N)=O (stereo not drawn) + CCn1c(-c2cccnc2C(C)OC)c2c3cc(ccc31)N1CCOC(CC(NC(=O)C(C(C)C)N(C)C(=O)C3(F)CCN(C(=O)C#CC(C)(C)N(C)C)CC3)C(=O)N3CCCC(N3)C(=O)OCC(C)(C)C2)C1
IC50 (second compound 0.000949 µM): > 10000 nM | IC50 (second compound 0.003 µM): > 10000 nM | IC50 (second compound 0.00949 µM): > 10000 nM | IC50 (second compound 0.03 µM): > 10000 nM | IC50 (second compound 0.0949 µM): > 10000 nM | IC50 (second compound 0.3 µM): 9650 nM | viability, T/C [1]: 106% | viability, T/C [2]: 112% | viability, T/C [3]: 109% | viability, T/C [4]: 101% | viability, T/C [5]: 93.2% | viability, T/C [6]: 91.9% | viability, T/C [7]: 107% | viability, T/C [8]: 116% | viability, T/C [9]: 103% | viability, T/C [10]: 102% | viability, T/C [11]: 99.7% | viability, T/C [12]: 84.2% | viability, T/C [13]: 97.5% | viability, T/C [14]: 116% | viability, T/C [15]: 109% | viability, T/C [16]: 114% | viability, T/C [17]: 91.5% | viability, T/C [18]: 78.7% | viability, T/C [19]: 95.4% | viability, T/C [20]: 109% | viability, T/C [21]: 98.9% | viability, T/C [22]: 108% | viability, T/C [23]: 96.4% | viability, T/C [24]: 78.3% | viability, T/C [25]: 123% | viability, T/C [26]: 106% | viability, T/C [27]: 103% | viability, T/C [28]: 92% | viability, T/C [29]: 106% | viability, T/C [30]: 90% | viability, T/C [31]: 102% | viability, T/C [32]: 87.6% | viability, T/C [33]: 94.5% | viability, T/C [34]: 68.1% | viability, T/C [35]: 103% | viability, T/C [36]: 48.7%

O=C(c1ccc(F)c(F)c1Nc1ccc(I)cc1F)N1CC(O)([C@@H]2CCCCN2)C1 + CCn1c(-c2cccnc2C(C)OC)c2c3cc(ccc31)N1CCOC(CC(NC(=O)C(C(C)C)N(C)C(=O)C3(F)CCN(C(=O)C#CC(C)(C)N(C)C)CC3)C(=O)N3CCCC(N3)C(=O)OCC(C)(C)C2)C1
IC50 (second compound 0.000949 µM): 64.9 nM | IC50 (second compound 0.003 µM): 53.7 nM | IC50 (second compound 0.00949 µM): 57.8 nM | IC50 (second compound 0.03 µM): 53.1 nM | IC50 (second compound 0.0949 µM): 47.5 nM | IC50 (second compound 0.3 µM): 14.8 nM | viability, T/C [37]: 108% | viability, T/C [38]: 99.2% | viability, T/C [1]: 70.6% | viability, T/C [2]: 34.7% | viability, T/C [3]: 21.4% | viability, T/C [4]: 4.49% | viability, T/C [39]: 112% | viability, T/C [40]: 109% | viability, T/C [7]: 63.3% | viability, T/C [8]: 30.5% | viability, T/C [9]: 18% | viability, T/C [10]: 2.97% | viability, T/C [41]: 105% | viability, T/C [42]: 109% | viability, T/C [13]: 61.5% | viability, T/C [14]: 34.8% | viability, T/C [15]: 22.2% | viability, T/C [16]: 3.61% | viability, T/C [43]: 125% | viability, T/C [44]: 93.9% | viability, T/C [19]: 61.8% | viability, T/C [20]: 34.7% | viability, T/C [21]: 16.9% | viability, T/C [22]: 2.6% | viability, T/C [45]: 101% | viability, T/C [46]: 87.9% | viability, T/C [25]: 59.2% | viability, T/C [26]: 31.2% | viability, T/C [27]: 13.3% | viability, T/C [28]: 2.27% | viability, T/C [47]: 85.8% | viability, T/C [48]: 58.6% | viability, T/C [31]: 32.8% | viability, T/C [32]: 20.4% | viability, T/C [33]: 5.09% | viability, T/C [34]: 1.18%
